Reference: patent US20200024278A1, “COMPOSITION COMPRISING ANTIBIOTIC COMPOUND AND AN HETEROCYCLIC COMPOUND AND THEIR USE IN PREVENTING OR TREATING BACTERIAL INFECTIONS” (MUTABILIS, priority 2016, published 2020)
Where two headings read alike, the source gives them in different places.

How the values were obtained:
Assay in all cases: MIC, broth microdilution (CLSI), substance alone or ATB combined with compound at 4 or 8 μg/mL
ECL P99 = format: cell-based, E. cloacae; conditions: for MIC: Enterobacter cloacae
How it was run: (§1)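 Antibiotic MICs were determined in presence of fixed compound at 4 or 8 μg/mL, and compound MICs alone, by visual growth inhibition. Inoculum 5·10^5 CFU/mL in ca-MHB, incubated 35 °C for 16-20 h per CLSI-M7-A7. Glucose-6-phosphate (25 μg/ml) added when fosfomycin was tested.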

ECO UFR39 = format: cell-based, E. coli; conditions: for MIC: Escherichia coli
How it was run: as §1

ECO 190317 = format: cell-based, E. coli; conditions: for MIC: Escherichia coli
How it was run: as §1

SPN 49619 = format: cell-based, S. pneumoniae; conditions: SPN 49619
How it was run: as §1

SAU 29213 = format: cell-based, S. aureus; conditions: SAU 29213
How it was run: as §1

KPN 6299 = format: cell-based, K. pneumoniae; conditions: for MIC: Klebsiella pneumoniae
How it was run: as §1

Question: Which results are given for `C=CC1=C(C(=O)O)N2C(=O)[C@@H](NC(=O)/C(=N\OCC(=O)O)c3csc(N)n3)[C@H]2SC1` [FIX, Cefixime, reference compound]?
Answer: MIC ATB combined with Example 1 @8 μg/ml (ECL P99; ECL P99, with Example 1 @8 μg/ml): 0.063 µg/mL; MIC ATB combined with Example 1 @8 μg/ml (ECL P99; ECL P99, with Example 1 at 8 μg/ml): 0.063 µg/mL; MIC ATB combined with Example 7 @8 μgml (ECL P99; ECL P99, with Example 7 at 8 μg/ml): 16 µg/mL; MIC ATB combined with Example 9 @4 μg/ml (ECL P99; ECL P99, with Example 9 @4 μg/ml): <0.031 µg/mL; MIC ATB combined with Example 9 @4 μg/ml (ECL P99; ECL P99, with Example 9 at 4 μg/ml): <0.031 µg/mL; MIC ATB combined with Example 11 @8 μg/ml (ECL P99; ECL P99, with Example 11 at 8 μg/ml): <0.031 µg/mL; MIC ATB combined with Example 12 @8 μg/ml (ECL P99; ECL P99, with Example 12 at 8 μg/ml): <0.031 µg/mL; MIC ATB combined with Example 13 @8 μg/ml (ECL P99; ECL P99, with Example 13 at 8 μg/ml): 8 µg/mL; MIC ATB combined with Example 14 @8 μg/ml (ECL P99; ECL P99, with Example 14 at 8 μg/ml): <0.031 µg/mL; MIC ATB combined with Example 15 @4 μgml (ECL P99; ECL P99, with Example 15 at 4 μg/ml): <0.031 µg/mL; MIC ATB combined with Example 16 @4 μg/ml (ECL P99; ECL P99, with Example 16 at 4 μg/ml): <0.031 µg/mL; MIC (ECL P99): > 128 µg/mL; MIC (ECL P99; ECL P99, antibiotic alone, read-out: MIC ATB alone): > 512 µg/mL; MIC ATB combined with Example 1 @8 μg/ml (ECO UFR39; ECO UFR39, with Example 1 @8 μg/ml): >32 µg/mL; MIC ATB combined with Example 1 @8 μg/ml (ECO UFR39; ECO UFR39, with Example 1 at 8 μg/ml): >32 µg/mL; MIC ATB combined with Example 7 @8 μgml (ECO UFR39; ECO UFR39, with Example 7 at 8 μg/ml): <0.031 µg/mL; MIC ATB combined with Example 9 @4 μg/ml (ECO UFR39; ECO UFR39, with Example 9 @4 μg/ml): <0.031 µg/mL; MIC ATB combined with Example 9 @4 μg/ml (ECO UFR39; ECO UFR39, with Example 9 at 4 μg/ml): <0.031 µg/mL; MIC ATB combined with Example 11 @8 μg/ml (ECO UFR39; ECO UFR39, with Example 11 at 8 μg/ml): <0.031 µg/mL; MIC ATB combined with Example 12 @8 μg/ml (ECO UFR39; ECO UFR39, with Example 12 at 8 μg/ml): <0.031 µg/mL; MIC ATB combined with Example 13 @8 μg/ml (ECO UFR39; ECO UFR39, with Example 13 at 8 μg/ml): <0.031 µg/mL; MIC ATB combined with Example 14 @8 μg/ml (ECO UFR39; ECO UFR39, with Example 14 at 8 μg/ml): <0.031 µg/mL; MIC ATB combined with Example 15 @4 μgml (ECO UFR39; ECO UFR39, with Example 15 at 4 μg/ml): <0.031 µg/mL; MIC ATB combined with Example 16 @4 μg/ml (ECO UFR39; ECO UFR39, with Example 16 at 4 μg/ml): <0.031 µg/mL; MIC (ECO UFR39): > 128 µg/mL; MIC (ECO UFR39; ECO UFR39, antibiotic alone, read-out: MIC ATB alone): > 512 µg/mL; MIC ATB combined with Example 1 @8 μg/ml (ECO 190317; ECO 190317, with Example 1 @8 μg/ml): <0.031 µg/mL; MIC ATB combined with Example 1 @8 μg/ml (ECO 190317; ECO 190317, with Example 1 at 8 μg/ml): <0.031 µg/mL; MIC ATB combined with Example 7 @8 μgml (ECO 190317; ECO 190317, with Example 7 at 8 μg/ml): <0.031 µg/mL; MIC ATB combined with Example 9 @4 μg/ml (ECO 190317; ECO 190317, with Example 9 @4 μg/ml): <0.031 µg/mL; MIC ATB combined with Example 9 @4 μg/ml (ECO 190317; ECO 190317, with Example 9 at 4 μg/ml): <0.031 µg/mL; MIC ATB combined with Example 11 @8 μg/ml (ECO 190317; ECO 190317, with Example 11 at 8 μg/ml): <0.031 µg/mL; MIC ATB combined with Example 12 @8 μg/ml (ECO 190317; ECO 190317, with Example 12 at 8 μg/ml): <0.031 µg/mL; MIC ATB combined with Example 13 @8 μg/ml (ECO 190317; ECO 190317, with Example 13 at 8 μg/ml): <0.031 µg/mL; MIC ATB combined with Example 14 @8 μg/ml (ECO 190317; ECO 190317, with Example 14 at 8 μg/ml): <0.031 µg/mL; MIC ATB combined with Example 15 @4 μgml (ECO 190317; ECO 190317, with Example 15 at 4 μg/ml): <0.031 µg/mL; MIC ATB combined with Example 16 @4 μg/ml (ECO 190317; ECO 190317, with Example 16 at 4 μg/ml): <0.031 µg/mL; MIC (ECO 190317): > 128 µg/mL; MIC (ECO 190317; ECO 190317, antibiotic alone, read-out: MIC ATB alone): 256 µg/mL; MIC ATB combined with Example 1 @8 μg/ml (SPN 49619; with Example 1 @8 μg/ml): 1 µg/mL; MIC ATB combined with Example 1 @8 μg/ml (SPN 49619; with Example 1 at 8 μg/ml): 1 µg/mL; MIC ATB combined with Example 7 @8 μgml (SPN 49619; with Example 7 at 8 μg/ml): 1 µg/mL; MIC ATB combined with Example 9 @4 μg/ml (SPN 49619; with Example 9 @4 μg/ml): 0.25 µg/mL; MIC ATB combined with Example 9 @4 μg/ml (SPN 49619; with Example 9 at 4 μg/ml): 0.25 µg/mL; MIC ATB combined with Example 11 @8 μg/ml (SPN 49619; with Example 11 at 8 μg/ml): 0.25 µg/mL; MIC ATB combined with Example 12 @8 μg/ml (SPN 49619; with Example 12 at 8 μg/ml): <0.031 µg/mL; MIC ATB combined with Example 13 @8 μg/ml (SPN 49619; with Example 13 at 8 μg/ml): 0.5 µg/mL; MIC ATB combined with Example 14 @8 μg/ml (SPN 49619; with Example 14 at 8 μg/ml): <0.031 µg/mL; MIC ATB combined with Example 15 @4 μgml (SPN 49619; with Example 15 at 4 μg/ml): 0.25 µg/mL; MIC ATB combined with Example 16 @4 μg/ml (SPN 49619; with Example 16 at 4 μg/ml): <0.031 µg/mL; MIC (SPN 49619; Streptococcus pneumoniae, antibiotic alone, read-out: MIC ATB alone): 1 µg/mL; MIC ATB combined with Example 1 @8 μg/ml (SAU 29213; with Example 1 @8 μg/ml): 16 µg/mL; MIC ATB combined with Example 1 @8 μg/ml (SAU 29213; with Example 1 at 8 μg/ml): 16 µg/mL; MIC ATB combined with Example 7 @8 μgml (SAU 29213; with Example 7 at 8 μg/ml): 8 µg/mL; MIC ATB combined with Example 9 @4 μg/ml (SAU 29213; with Example 9 @4 μg/ml): <=0.031 μg/mL; MIC ATB combined with Example 9 @4 μg/ml (SAU 29213; with Example 9 at 4 μg/ml): <=0.031 μg/mL; MIC ATB combined with Example 11 @8 μg/ml (SAU 29213; with Example 11 at 8 μg/ml): 0.125 µg/mL; MIC ATB combined with Example 12 @8 μg/ml (SAU 29213; with Example 12 at 8 μg/ml): <0.031 µg/mL; MIC ATB combined with Example 13 @8 μg/ml (SAU 29213; with Example 13 at 8 μg/ml): 4 µg/mL; MIC ATB combined with Example 14 @8 μg/ml (SAU 29213; with Example 14 at 8 μg/ml): <0.031 µg/mL; MIC ATB combined with Example 15 @4 μgml (SAU 29213; with Example 15 at 4 μg/ml): <0.031 µg/mL; MIC ATB combined with Example 16 @4 μg/ml (SAU 29213; with Example 16 at 4 μg/ml): <0.031 µg/mL; MIC (SAU 29213; Staphylococcus aureus, antibiotic alone, read-out: MIC ATB alone): 16 µg/mL; MIC (KPN 6299; antibiotic alone, read-out: MIC ATB alone): 16 µg/mL; MIC (KPN 6299; substance alone, read-out: MIC): 16 µg/mL; MIC ATB combined with Example 1 @8 μg/ml (KPN 6299; with Example 1 @8 μg/ml): 0.063 µg/mL; MIC ATB combined with Example 1 @8 μg/ml (KPN 6299; with Example 1 at 8 μg/ml): 0.063 µg/mL; MIC ATB combined with Example 7 @8 μgml (KPN 6299; with Example 7 at 8 μg/ml): 0.063 µg/mL; MIC ATB combined with Example 9 @4 μg/ml (KPN 6299; with Example 9 @4 μg/ml): <=0.031 μg/mL
